# In patent US20090082304A1, “Methods of Treating Hematological Malignancies with Nucleoside Analog Drugs” (NORTHWESTERN UNIVERSITY, priority 2004, published 2009):
# Columns and labels:
# [1] = test system: MKK3/6; test: Immunoblot of phospho-MKK3/6 in MM.1 S cells; assay type: cell-based; details: 10 μM
# Experimental: (§1) 5×10^6 were cells treated with 10 μM 8-NH2-Ado for the indicated times and harvested. Cell pellets were washed with cold phosphate-buffered saline (PBS; 8.1 g NaCl, 1.14 g Na2HPO4, 0.22 g KCl, and 0.25 g/L KH2PO4) and incubated with lysis buffer (50 mM HEPES, 150 mM NaCl, 1.5 mM MgCl2, 1 mM EDTA pH 8.0, 100 mM NaFI, 10 mM Na Pyrophosphate, 500 μM PMSF, 0.5% Triton X-100, 10% glycerol) at 4° C. for one hour. Lysates were centrifuged at 4° C. for 1 minute at 9000×g, and the supernatants were collected and stored at −20° C. Protein concentration was determined by Bio-Rad protein assay (BioRad Laboratories, Hercules, Calif.). Protein, at a concentration of 30 μg, was mixed with sample buffer (125 mM Tris, pH 6.8, 4% SDS, 20% glycerol, 100 mM Dithiothreitol (DTT), and 0.05% bromophenol blue), and fractionated on a pre-cast 8-16% Tris-Glycine gel (Invitrogen/Novex, Carlsbad, Calif.). Proteins were then transferred to a Polyvinylidene Fluoride (PVDF) membrane (Immobilon-P, Millipore, Bedford, Mass.): Following protein transfer, membranes were blocked with 5% non-fat milk in PBS-T (PBS with 0.1% Tween), incubated with the primary antibody overnight at 4° C. and subsequently with horseradish peroxidase linked secondary antibody (Amersham, Arlington Heights, Ill.). […]
# [2] = test system: ATF-2; test: Immunoblot of phospho-ATF-2 in MM.1 S cells; assay type: cell-based; details: 10 μM, by 2 hours
# Experimental: as §1
# [3] = test system: p90RSK; test: Immunoblot of phospho-p90RSK in MM.1 S cells; assay type: cell-based; details: 10 μM, 0-6 hours
# Experimental: as §1
# [4] = test system: Akt kinase; test: Immunoblot of phospho-Akt in MM.1 S cells; assay type: cell-based; details: 10 μM
# Experimental: (§2) 5×10^6 were cells treated with 10 μM 8-NH2-Ado for the indicated times and harvested. Cell pellets were washed with cold phosphate-buffered saline (PBS; 8.1 g NaCl, 1.14 g Na2HPO4, 0.22 g KCl, and 0.25 g/L KH2PO4) and incubated with lysis buffer (50 mM HEPES, 150 mM NaCl, 1.5 mM MgCl2, 1 mM EDTA pH 8.0, 100 mM NaFI, 10 mM Na Pyrophosphate, 500 μM PMSF, 0.5% Triton X-100, 10% glycerol) at 4° C. for one hour. Lysates were centrifuged at 4° C. for 1 minute at 9000×g, and the supernatants were collected and stored at −20° C. Protein concentration was determined by Bio-Rad protein assay (BioRad Laboratories, Hercules, Calif.). Protein, at a concentration of 30 μg, was mixed with sample buffer (125 mM Tris, pH 6.8, 4% SDS, 20% glycerol, 100 mM Dithiothreitol (DTT), and 0.05% bromophenol blue), and fractionated on a pre-cast 8-16% Tris-Glycine gel (Invitrogen/Novex, Carlsbad, Calif.). Proteins were then transferred to a Polyvinylidene Fluoride (PVDF) membrane (Immobilon-P, Millipore, Bedford, Mass.): Following protein transfer, membranes were blocked with 5% non-fat milk in PBS-T (PBS with 0.1% Tween), incubated with the primary antibody overnight at 4° C. and subsequently with horseradish peroxidase linked secondary antibody (Amersham, Arlington Heights, Ill.). Blots were developed using ECL Plus Chemiluminescent Western Blotting Detection reagent (Amersham, Arlington Heights, Ill.) and the signal was visualized with X-ray film (Hyperfilm, Amersham, Arlington Heights, Ill.). For reprobing purposes, blots were stripped using Restore Western Blot Stripping Buffer from Pierce Biotechnology (Rockford, Ill.). Phospho-MKK3/6 (Ser189/207), phospho-p38 (Thr180/Tyr182), phospho-ATF-2 (Thr69/71), phospho-c-Raf (Ser259), phospho-MEK1/2 (Ser217/221), total MEK1/2, phospho-ERK1/2 (Thr202/Tyr204), total ERK1/2, phospho-p90RSK (Ser380), total RSK, phospho-PDK1 (Ser241), total PDKI, phospho-PTEN (Ser380), total PTEN, phospho-Akt (Ser473), total Akt, phospho-GSK-3β (Ser9), total GSK-3β, phospho-FKHRLI (Thr32)/-FKHR (Thr24), phospho-FKHR (Ser256) primary antibodies were obtained from Cell Signaling Technology (Beverly, Mass.). Total MKK3, total MKK6, total p38, total ATF-2, total c-Raf, total FKHR, total FKHRLI, phospho-JNK and total JNK were purchased from Santa Cruz Biotechnology (Santa Cruz, Calif.). Caspase 3, caspase 9, and PARP antibodies were obtained from Pharmingen (San Diego, Calif.) and anti-MKP1 from Upstate (Lake Placid, N.Y.). Anti-caspase 8 mouse serum was a generous gift of Dr. Marcus Peter (University of Chicago).
# (§3) MM.1 S cells were exposed to 10 μM 8-NH2-Ado for 0, 0.5, 1, 2, 4 and 6 hours, after which cells were lysed as previously (Example 2). 30 μg of protein was separated by gel electrophoresis, transferred to PVDF membrane, and probed with phosphorylation-specific antibodies to MKK3/6, p38 MAPK, ATF-2, MEK1/2, ERK1/2, p90RSK, JNK1, PDK1, Akt, FKHRL1 and GSK-3β.
# MM. I S cells were treated with 10 μM 8-chloro-adenosine for 0, 0.5, 1, 2, 4 or 6 hours or 10 μM of cytarabine, fludarabine, gemcitabine or 8-amino-adenosine for 4 hours. Cells were lysed as previously described and 30 μg of protein was separated by gel electrophoresis, transferred to PVDF membrane, and probed with phospho-p38 MAPK (Thr180/Tyr182) antibody.
# MM.1 S cells were grown in dextrose-free media and treated with 2 μM Antimycin A, 5 mM 2-DOG, and varying concentrations of dextrose for 90 minutes. Cellular ATP levels were determined using triplicate samples in a luciferase based assay and are expressed here as a percentage of untreated control.
# [5] = test system: GSK-3β; test: Immunoblot of phospho-GSK-3β in MM.1 S cells; assay type: cell-based; details: 10 μM
# Experimental: as §1
# [6] = test system: total protein levels of the signaling proteins in myeloma cells; test: Immunoblot reprobe with total protein antibodies; assay type: cell-based
# Experimental: as §2
# as §3, with “GSK-3β. […] FIGS. 1A, 1B, 1C and 1D provide the results of the blots.” for “GSK-3β.”
# [7] = test system: PTEN; test: Immunoblot of PTEN (total and phospho) in MM.1 S cells; assay type: cell-based; details: 10 μM, 0-6 hours
# Experimental: as §1, with “Calif.).” for “Calif.). Proteins were then transferred to a Polyvinylidene Fluoride (PVDF) membrane (Immobilon-P, Millipore, Bedford, Mass.): Following protein transfer, membranes were blocked with 5% non-fat milk in PBS-T (PBS with 0.1% Tween), incubated with the primary antibody overnight at 4° C. and subsequently with horseradish peroxidase linked secondary antibody (Amersham, Arlington Heights, Ill.).”
# In addition, the effect of 8-NH2-Ado treatment on PTEN, which encodes a key phosphatase involved in the negative regulation of the PI3K/Akt signaling pathway was assessed (FIG. 5B). […]
# [8] = test system: caspase 9; test: Caspase 9 activation immunoblot in MM.1 S cells; assay type: cell-based; details: 10 μM
# Experimental: as §1, with “Calif.).” for “Calif.). Proteins were then transferred to a Polyvinylidene Fluoride (PVDF) membrane (Immobilon-P, Millipore, Bedford, Mass.): Following protein transfer, membranes were blocked with 5% non-fat milk in PBS-T (PBS with 0.1% Tween), incubated with the primary antibody overnight at 4° C. and subsequently with horseradish peroxidase linked secondary antibody (Amersham, Arlington Heights, Ill.).”
# MM.1 S cells were exposed to 10 μM 8-NH2-Ado for 0, 0.5, 1, 2, 4 or 6 hours, after which cells were lysed as previously described. […] Total protein levels were also assessed to ensure equal loading and transfer (data not shown). […]
# [9] = test system: MM cells; details: cited from earlier work
smiles,measurement,setting,value
"Nc1ncnc2c1nc(N)n2[C@@H]1O[C@H](CO)[C@@H](O)[C@H]1O [8-NH2-Ado, 8-amino-adenosine]",Phosphorylated MKK3/6 protein levels,[1]; by 2 hours,decrease significantly
same,Phosphorylated MKK3/6 protein levels,[1]; by 6 hours,negligible
same,levels of phosphorylated ATF-2,[2],falling considerably
same,phosphorylation level of p90RSK,[3],modestly decrease
same,phosphorylation of Akt,"[4]; 4 hours, data not shown",dramatic loss of phosphorylation
same,Phospho-Akt levels,[4]; by 2 hours,decrease significantly
same,Phospho-Akt levels,[4]; eventually (after 2 hours),decline further to negligible levels
same,Phospho-OSK-3p levels,[5]; by 2 hours,diminish
same,Phospho-OSK-3p levels,[5]; by 6 hours,negligible
same,"Total protein levels of the p38 MAPK module (MKK3/6, p38, ATF-2)","[6]; MM.1 S cells, 10 μM, 0-6 hours",remain unchanged
same,total ERK1/2 levels,"[6]; MM.1 S cells, 10 μM, 0-6 hours",remain unchanged
same,total MEK1/2 protein levels,"[6]; MM.1 S cells, 10 μM, 0-6 hours",do not change
same,total p90RSK protein levels,"[6]; MM.1 S cells, 10 μM, 0-6 hours",unaffected
same,total protein levels of Forkhead family members,"[6]; MM.1 S cells, 10 μM, 0-6 hours",do not change
same,total p38 levels,"[6]; RPMI-8226, MDR10V and MM.1 R cells",remain unchanged
same,total and phospho-PTEN levels,[7],unaltered
same,time at which cleaved and activated caspase 9 appears,[8],2 to 4 h
same,cytotoxicity,[9],affected by the cytotoxic ability
